Laboratory results: patent US5877026A, “Analgesic peptides from venom of Grammostola spatulata and use thereof” (priority 1998, dated 1999)
Where no end group is shown, it is not given here.

What was measured:
Assay type in all cases: in vivo, rat
[1] = test system: Sprague Dawley rats; settings: i.th.; two treatment arms
[2] = test system: opioid receptors; test: Opioid receptor testing (opioid antagonist pretreatment)
Protocol: Animals were then tested in the tail flick test (Example 3) and von Frey tests (Example 5).

[3] = test system: Sprague-Dawley rats; test: Tail flick latency
From the text: This test measures the time interval required for a rat to withdraw its tail, via a spinally mediated reflex mechanism, from a high intensity light source (IITC Inc./Life Sciences Instruments, Woodland Hills, Calif. 91367) focally applied to the dorsal surface of the appendage. The intensity of the light beam has been experimentally defined such that naive animals will withdraw their tails within 2 to 4 seconds. A maximum cut off time for the light source has been set at ten seconds to reduce the amount of secondary tissue damage.
Data is expressed either as absolute time or a percentage of the maximal possible effect (MPE) which is described by the following equation where 10 seconds is the maximum: [formula] (Latency refers to the amount of time before the animal removed its appendage from the light source.)
(§1) With minimal restraint, peptide GsAF I was injected intrathecally (i.th.) into young (75-150 gram) male Sprague-Dawley rats (Charles Rivers Laboratories, Wilmington, Mass. 01887). I.th. injections were made into the spinal subarachnoid space between lumbar spinous processes L4 and L5 using 10 microliter Hamilton syringes equipped with 3/8 inch by 28G needles. Dosing levels were based upon concentrations deduced from ultraviolet absorbance values at 280 nm using an extinction coefficient of 18710. Injection volume was 10 microliters. The injection vehicle was saline or 0.1% bovine serum albumin(BSA)/saline. The rats were pretreated with GsAF I 30 minutes prior to exposure to the light source.
as §1, with “GsAF II” for “GsAF I”, “Wilmington, Mass.))” for “Wilmington, Mass. 01887). I.th. injections were made”, “using the deduced molar” for “using an”, “of 24310.” for “of 18710.”, “GsAF II 15” for “GsAF I 30”

[4] = test system: Sprague Dawley rats; test: Acute inflammatory pain, carrageenan paw withdrawal latency; settings: for Mean Latency Time In Seconds ± SEM, 30 minutes post treatment / Mean Latency Time In Seconds ± SEM, 60 minutes post treatment: 3 nmol intrathecal cannula; for Mean Latency Time In Seconds ± SEM, 30 minutes post treatment: given after 150 min post carrageenan; for Mean Latency Time In Seconds ± SEM, 60 minutes post treatment: predetermined cut-off value 20.8 sec
Protocol: Tissue injury results in inflammation and hyperalgesia (i.e. increased magnitude or duration of pain response to supra threshold noxious stimuli) at both the site of injury and at adjacent tissue sites. To assess the anti-hyperalgesic activity of GsAF II in inflammatory pain conditions, paw withdrawal latencies were determined in adult 350-400 gram male Sprague Dawley rats following the unilateral injection of carrageenan, a seaweed extract, into the hindpaw in accordance with the method of Hargreaves et al, Pain, 32:77-88, 1988. Briefly, withdrawal latencies are measured by placing the rat on a glass plate and focusing radiant heat from the underside of the plate toward the hindpaw surface. Latencies values are recorded in seconds to withdrawal of the hindpaw from the surface of the plate. Basal measurements are made prior to injection of the carrageenan (4 mg/hindpaw), followed by a measurement at 150 min post carrageenan injection to obtain the level of hyperalgesic response. Subsequent to the second measurement, GsAF II or vehicle (i.e. 0:1% BSA/saline) is administered through an indwelling intrathecal cannula positioned within the lumbar enlargement of the spinal cord. Anti-hyperalgesic activity is determined by measuring paw withdrawal latencies at various time intervals following compound administration. Concurrent with the paw withdrawal latencies, physical measurements of paw volume and paw temperature are recorded to detect anti-inflammatory and anti-pyretic activities.

[5] = 3 nmol group (n = 4), before compound administration
[6] = 583 picomoles (2.33 micrograms) i.th., 15 minutes pretreatment

## Tyr-Cys-Gln-Lys-Trp-Leu-Trp-Thr-Cys-Asp-Ser-Glu-Arg-Lys-Cys-Cys-Glu-Asp-Met-Val-Cys-Arg-Leu-Trp-Cys-Lys-Lys-Arg-Leu-NH2 (YCQKWLWTCDSERKCCEDMVCRLWCKKRL-NH2; cysteine pairing not given here) [GsAF I]
[1]
  dose response properties, morphine treatment versus saline arm (cross tolerance): not significantly different
[2]; B-funaltrexamine 5 micrograms i.th. 18 hours prior, hot plate test or formalin test
  effect of B-funaltrexamine pretreatment on analgesic activity: failed to inhibit
[2]; naloxone 50 μg i.th. immediately prior, 180 pmoles i.th., measured 10 minutes later
  effect of intrathecal naloxone on analgesic response: failed to inhibit
[2]; naloxone 10mg/kg subcutaneous 5 minutes prior, 180 pmoles i.th., measured 10 minutes later, tail flick and von Frey tests
  effect of naloxone pretreatment on analgesic activity: failed to inhibit
[3]; 1.8 picomoles (6.6 nanograms) i.th., 30 minutes pretreatment
  activity in tail flick latency: inactive
[3]; 18 picomoles (66 nanograms) i.th., 30 minutes pretreatment
  MPE, tail flick latency: 29 % MPE
[3]; 180 picomoles (666 nanograms) i.th., 30 minutes pretreatment
  MPE, tail flick latency: 95 % MPE
[3]; 180 picomoles (666 nanograms) i.th., in most rats
  inhibition of the tail flick response (latency value greater than 10 seconds): Complete inhibition
[3]; 180 picomoles i.th.
  confounding side effects (motor disturbances, limb impairment/paralysis, righting reflex, sedation): either minimal or not present
[3]; i.th., tail flick
  pretreatment time with maximal activity: 30 min

## YCQKWMWTCDEERKCCEGLVCRLWCKKKIEW (cysteine pairing not given here) [GsAF II]
[4]; [5]
  Mean Latency Time In Seconds ± SEM, 150 minutes post carrageenan injection: 3.0 ± 0.81 s
  Mean Latency Time In Seconds ± SEM, base latency prior to carrageenan injection: 8.3 ± 1.2 s
[4]
  Mean Latency Time In Seconds ± SEM, 30 minutes post treatment: 17.82 ± 3.78 s
  Mean Latency Time In Seconds ± SEM, 60 minutes post treatment: 20.8 s
[4]; listed as GsAFII
  Mean Latency Time In Seconds ± SEM, 30 minutes post treatment: 17.82 ± 3.78 s
  Mean Latency Time In Seconds ± SEM, 60 minutes post treatment: 20.8 ± 0.00 s
[4]; 3 nmoles intrathecal
  confounding motor deficits or overt negative side effects: no indication
  hyperalgesic, thermal-induced response: completely reversed
  paw temperature: No significant reduction
  paw volume: No significant reduction
[3]; 2.33 nanomoles (9.27 micrograms) i.th., 15 minutes pretreatment, all animals (n=8)
  inhibition of the tail flick response (latency greater than ten seconds): Complete inhibition
[3]; 2.33 nanomoles and 583 picomoles i.th.
  confounding side effects: no confounding side effects were detected
[3]; [6]
  animals with 100% MPE, tail flick: five of six
  average MPE, tail flick latency: 92%
